We go through ten compounds from ChEMBL document CHEMBL5390220, “SAR study of niclosamide derivatives for neuroprotective function in SH-SY5Y neuroblastoma” (Bioorg Med Chem Lett, 2023).

Assay type in all cases: functional, cell-based
For test [1], the system named is SH-SY5Y. Description: Neuroprotective activity against human SH-SY5Y cells assessed as reduction in cleaved PARP level incubated for 24 hrs in presence of MG132 by Western blot analysis. For orientation: A western blot detects proteins with antibodies after separation by electrophoresis.
The test system of test [2] is SH-SY5Y. Description: Neuroprotective activity against human SH-SY5Y cells assessed as inhibition of CHOP expression incubated for 24 hrs in presence of MG132 by Western blot analysis.
For test [3], the system named is SH-SY5Y. Description: Neuroprotective activity against human SH-SY5Y cells assessed as inhibition of p53 expression incubated for 24 hrs in presence of MG132 by Western blot analysis.
Test [4] relates to SH-SY5Y. The test can be described thus: Neuroprotective activity against human SH-SY5Y cells assessed as reduction in protein ubiquitination level incubated for 24 hrs in presence of MG132 by Western blot analysis.
Test [5] has as its system SH-SY5Y. Description: Neuroprotective activity against human SH-SY5Y cells assessed as reduction in cyclin D expression incubated for 24 hrs in presence of MG132 by Western blot analysis.

Calls of active or inactive are those of the source. The calls are words filed in the database; no cut-off is given here.

As to `[N-]=[N+]=Nc1ccc(NC(=O)c2cc(Cl)ccc2O)c(Cl)c1`, the outcome in the test with SH-SY5Y [1], in the test with SH-SY5Y [4] and with SH-SY5Y [5] was Active. In addition, the inhibition entry with SH-SY5Y [2] and with SH-SY5Y [3] was “Active” each time.
Regarding `CC(=O)Nc1ccc(NC(=O)c2cc(Cl)ccc2OC(C)=O)c(Cl)c1`, the result in the test on SH-SY5Y [1], with SH-SY5Y [4] and in the test with SH-SY5Y [5] was inactive. Moreover, the inhibition result in the test on SH-SY5Y [2] and in the test on SH-SY5Y [3] was “inactive” in each case.
`O=C(Nc1ccc(C(F)(F)F)cc1Cl)c1cc(Cl)ccc1O`: the outcome in the test with SH-SY5Y [1], in the test with SH-SY5Y [4] and in the test with SH-SY5Y [5] was Active. The inhibition result in the test with SH-SY5Y [2] and with SH-SY5Y [3] was “Active” in each case.
Turning to `O=C(Nc1ccc([N+](=O)[O-])cc1)c1cc(Cl)ccc1O`, the result in the test with SH-SY5Y [1], with SH-SY5Y [4] and in the test with SH-SY5Y [5] was Active. Besides, the inhibition result with SH-SY5Y [2] and with SH-SY5Y [3] was “Active” each time.
Regarding `O=C(Nc1ccc([N+](=O)[O-])cc1Cl)c1cc(Cl)ccc1O`, the outcome in the test on SH-SY5Y [1] and in the test on SH-SY5Y [4] was Active. The inhibition entry with SH-SY5Y [2] and in the test with SH-SY5Y [3] was “Active” each time.
Turning to `O=C(Nc1ccccc1)c1cc(Cl)ccc1O`, in the test on SH-SY5Y [3], the inhibition entry is “inactive”.
Take `O=C(Nc1ccc([N+](=O)[O-])cc1Cl)c1ccccc1`: the result in the test on SH-SY5Y [4] was inactive.
For the compound `O=C(Nc1ccc([N+](=O)[O-])cc1Cl)c1ccccc1O`, the inhibition result in the test on SH-SY5Y [2] and in the test with SH-SY5Y [3] was “Active” each time. Also, in the test on SH-SY5Y [5], the result was Active.
`Nc1ccc(NC(=O)c2ccccc2O)cc1`: the inhibition entry with SH-SY5Y [3] was “inactive”.
Regarding `CC(=O)Oc1ccc(Cl)cc1C(=O)Nc1ccc([N+](=O)[O-])cc1Cl`, the inhibition entry with SH-SY5Y [2] and in the test with SH-SY5Y [3] was “Active” in each case. Further, the result in the test on SH-SY5Y [4] and in the test on SH-SY5Y [5] was Active.
